From EP4566600A1, “AFFECTIVE DISORDER AMELIORATING AGENT” (National University Corporation Kobe University, priority 2022, dated 2024)

Columns and labels:
[1] = target: T1, GFP-PKCγ (Homo sapiens, UniProt P05129); test: PKCγ activity inhibitory action in TPA-treated COS7 cells expressing GFP-PKCγ (Western blotting for PKCγ and phosphorylated PKCγ); assay type: cell-based; conditions: treated with TPA and flavonoid, n=2 (Fig. 5)
T1 construct: expressed in transfected cells; host or cells: COS7 cells, electroporation, 48 h
Method: The PKCγ activity inhibitory action of various flavonoids was tested. Scutellarin (Scu), baicalin (Bai), luteolin (Lut), and apigenin (Api) were used as various flavonoids. A plasmid encoding GFP-PKCγ was introduced into COS7 cells by electroporation and cultured for 48 hours to express GFP-PKCγ. After treating the cells with TPA (12-O-Tetradecanoylphorbol-13-acetate, activator of PKCγ) and each flavonoid, the cells were ground and proteins were subjected to SDS-PAGE. Thereafter, Western blotting was performed for PKCγ and phosphorylated PKCγ (activated form).

[2] = system: affective disorder model mice (DGKβKO mice); test: elevated plus maze test (affective disorder evaluation system 1); assay type: in vivo; conditions: relative to that in the case of taking placebo; male affective disorder model mice aged 8-11 weeks, drinking water containing 600 mg/L of lithium for 10 consecutive days
Method: Mice in which DGKβ was knocked out (DGKβKO mice) were prepared as an affective disorder (mania) model. This model mice are not associated with dementia.
An elevated plus maze test was used. In an elevated plus maze, a passage with a wall (closed arm) and a passage without a wall (open arm) crossed each other in a cross shape, and normal mice (WT) were afraid of the open arm and stayed in the closed arm for a long time, while affective disorder model mice were less likely to feel anxiety and stayed in the open arm for a long time. Based on this, the ratio of the residence time in the open arm in the test time was used as an index of anxiety.
Male affective disorder model mice aged 8-11 weeks were allowed to freely drink water containing 600 mg/L of lithium for 10 consecutive days.
The affective disorder model mice orally administered with lithium were subjected to affective disorder evaluation system 1 (elevated plus maze test) to evaluate amelioration of affective disorder (mania).

| Compound | PKCγ activity inhibitory action [1] | ratio of the residence time in the open arm [2] |
| --- | --- | --- |
| O=c1cc(-c2ccc(O)cc2)oc2cc(O)cc(O)c12 [apigenin] | observed |  |
| O=C(O)[C@H]1O[C@@H](Oc2cc3oc(-c4ccccc4)cc(=O)c3c(O)c2O)[C@H](O)[C@@H](O)[C@@H]1O [baicalin] | observed |  |
| [Li] [lithium] |  | about 30% |
| O=c1cc(-c2ccc(O)c(O)c2)oc2cc(O)cc(O)c12 [luteolin] | observed |  |
